Results as given in paper PMC9841531, “Indole Derivatives as New Structural Class of Potent and Antiproliferative Inhibitors of Monocarboxylate Transporter 1 (MCT1; SLC16A1)” (Journal of Medicinal Chemistry, 2022).

Tests used:
[1] = system: ABCB1-expressing A2780/ADR cells; assay: MTT-based efficacy (MDR-reversal) assay, 33 in combination with test compound, A2780/ADR; type: cell-based; settings: for sensitization of ABCB1-expressing A2780/ADR cells against 33: 5 μM; for EC50: from resistance factors of 33 (A2780/ADR vs A2780) against compound concentration, read-out: half-maximal reversal concentration (EC50)
Method: This sensitization is indicated by a shift of the concentration-effect curve of compound 33 from the right (=high concentrations of 33 needed to induce A2780/ADR cell death) to the left (=lower concentrations of 33 needed to induce A2780/ADR cell death). The concentration-effect curve of compound 33 in combination with 5 μM of either compound 24 or 30 resembles the concentration-effect curve of the sensitive cell line A2780. […] Thus, their potentiating effect with respect to the antiproliferative agent 33 against ABCB1-expressing A2780/ADR cells is due to the inhibition of ABCB1. Therefore, compounds 24 and 30 were dually effective against MCT1- and ABCB1-expressing cells (Table 5).
An MDR-reversal assay[2],[55]−[59] was used to investigate the ability to reverse ABCB1-mediated MDR in A2780/ADR cells toward the cytotoxic ABCB1 substrate 33. […] A dilution series of 33 at concentrations between 0.1 μM and 100 μM was generated, and 20 μL of each concentration was transferred onto the plates (final concentration: 0.01–10 μM). The plates were incubated for 72 h at 37 °C and a 5% CO2-humidified atmosphere, before subsequent processing with the regular MTT assay as described above. The observed effects of compounds 24 and 30 were compared to the effect of 33 alone on A2780/ADR cells as well as its sensitive counterpart A2780 (∼10,000 cells/well).

ABCB1 [2] = biological target: T1, ABCB1 (Homo sapiens, UniProt P08183); assay: daunorubicin assay, ABCB1-expressing A2780/ADR cells; type: cell-based; settings: A2780/ADR cells; read-out: ABCB1 daunorubicin IC50 ± SEM
A-549 cells = assay: MTT-based cell viability assay with glucose supplementation; settings: 25 and 50% of original glucose (4.5 g/L) every 12 h over 72 h
Method: The glucose deprivation analyses were conducted by adding 4.5 μL of glucose (final concentrations 25% and 50% of the original 4.5 g/L) to each well at an interval of 12 h over a period of 72 h to the 180 μL cell suspension of A-549 cells in a colorless flat-bottom 96-well microplate (SPL Life Sciences, Gyeonggi-do, Republic of Korea). Cell viability was determined as described above.

ABCB1 [3] = biological target: T1, ABCB1; assay: calcein AM assay, ABCB1-expressing A2780/ADR cells; settings: for IC50: read-out: ABCB1 calcein AM IC50 ± SEM, A2780/ADR cells, 22, 23 constrained to reference inhibitor 34; for ABCB1 inhibition: screening at 10 μM, inhibitor if 20% (+SEM) reached
Text: (§1) To provide a detailed picture of the pharmacological profile of the indole derivatives, we investigated their modulatory nature on the most prominent ABC transporters ABCB1 (P-glycoprotein, P-gp), ABCC1, (multidrug resistance-associated protein 1, MRP1), and ABCG2 (breast cancer resistance protein, BCRP). Here, we conducted calcein AM (ABCB1),[2],[52]−[59] daunorubicin (ABCC1),[52],[58]−[60] and pheophorbide A (ABCG2)[2],[52]−[60] assays using ABCB1-expressing A2780/ADR, ABCC1-expressing H69AR, and ABCG2-expressing MDCK II BCRP cells, respectively.
(§2) The calcein AM (ABCB1),[2],[52]−[59] daunorubicin (ABCB1[52],[60] and ABCC1[52],[58]−[60]), and pheophorbide A (ABCG2)[2],[52]−[60] assays were conducted as reported earlier. […] The data was processed using GraphPad Prism version 8.4.0, and IC50 values were determined, applying three- or four-parameter logistic equations, whatever was statistically preferred.

MCF-7 cancer cells = assay: MTT-based cell viability assay, MCF-7; settings: Homo sapiens, MCF7, 72 h, read-out: MCF-7 cancer cell toxicity GI50 ± SEM
Text: MCT1-expressing cells have an extraordinary energy demand and rely on pyruvate metabolism, through either lactate conversion or pyruvate consumption. Inhibition of MCT1 blocks lactate and pyruvate influx into cancer cells, which prevents their processing in the TCA cycle. Over time, the viability of cells exposed to an MCT1 inhibitor is impaired due to pyruvate deprivation, which is compensated by upregulating glucose metabolism—leading to an overconsumption of glucose. To confirm the antiproliferative nature of the indole derivatives, we investigated the compounds toward the MCT1-expressing cell lines A-549[14],[15] and MCF-7.[16] Cancer cell viability was assessed via a 3-(4,5-dimethylthiazol-2-yl)-2,5-diphenyltetrazolium bromide (MTT) assay, as reported earlier.[43]
To determine the growth inhibitory potential of compounds 17–32, […] of each compound either at concentrations between 1 and 100 μM (A-549 or MCF-7) or at 10 and 50 μM (NIH/3T3) was pipetted into colorless flat-bottom 96-well microplates. Thereafter, 180 μL of a cell suspension (5000 cells/well) of either A-549, MCF-7, or NIH/3T3 cells was added and subsequently kept for 72 h at 37 °C under a 5% CO2-humidified atmosphere. The cell viability as well as the GI50 values were determined as described above.[43]

[4] = system: MCT1-expressing A-549 cells; assay: MTT-based efficacy assay, 33 in combination with test compound, A-549; type: cell-based; settings: for factor of sensitization of A-549 cells against 33: shift of concentration-effect curve of 33; for Increase Susceptibility toward 33 (Factor): supplement csv
Method: MCT1 inhibition anticipates challenging cancer cell energy supply and, thus, increases the efficacy of anticancer agents.
For this purpose, 10 μL of compounds 24 or 30 (50 nM, 100 nM, or 500 nM) was transferred onto a colorless flat-bottom 96-well microplate and complemented with 180 μL of a cell suspension containing either approximately 5,000 A-549 cells. A dilution series of compound 33 at concentrations between 50 nM and 50 μM was generated, and 10 μL of each concentration was transferred onto the plate. The observed effects of compounds 24 and 30 were compared to the effect of compound 33 alone on A-549. The plates were incubated for 72 h at 37 °C and a 5% CO2-humidified atmosphere, before subsequent processing with the regular MTT assay as described above.[43]

ABCC1 = ABCC1 (Homo sapiens, UniProt P33527); assay: daunorubicin assay, ABCC1-expressing H69AR cells; settings: screening at 10 μM, inhibitor if 20% (+SEM) reached
Sequence of ABCC1 (P33527 whole entry): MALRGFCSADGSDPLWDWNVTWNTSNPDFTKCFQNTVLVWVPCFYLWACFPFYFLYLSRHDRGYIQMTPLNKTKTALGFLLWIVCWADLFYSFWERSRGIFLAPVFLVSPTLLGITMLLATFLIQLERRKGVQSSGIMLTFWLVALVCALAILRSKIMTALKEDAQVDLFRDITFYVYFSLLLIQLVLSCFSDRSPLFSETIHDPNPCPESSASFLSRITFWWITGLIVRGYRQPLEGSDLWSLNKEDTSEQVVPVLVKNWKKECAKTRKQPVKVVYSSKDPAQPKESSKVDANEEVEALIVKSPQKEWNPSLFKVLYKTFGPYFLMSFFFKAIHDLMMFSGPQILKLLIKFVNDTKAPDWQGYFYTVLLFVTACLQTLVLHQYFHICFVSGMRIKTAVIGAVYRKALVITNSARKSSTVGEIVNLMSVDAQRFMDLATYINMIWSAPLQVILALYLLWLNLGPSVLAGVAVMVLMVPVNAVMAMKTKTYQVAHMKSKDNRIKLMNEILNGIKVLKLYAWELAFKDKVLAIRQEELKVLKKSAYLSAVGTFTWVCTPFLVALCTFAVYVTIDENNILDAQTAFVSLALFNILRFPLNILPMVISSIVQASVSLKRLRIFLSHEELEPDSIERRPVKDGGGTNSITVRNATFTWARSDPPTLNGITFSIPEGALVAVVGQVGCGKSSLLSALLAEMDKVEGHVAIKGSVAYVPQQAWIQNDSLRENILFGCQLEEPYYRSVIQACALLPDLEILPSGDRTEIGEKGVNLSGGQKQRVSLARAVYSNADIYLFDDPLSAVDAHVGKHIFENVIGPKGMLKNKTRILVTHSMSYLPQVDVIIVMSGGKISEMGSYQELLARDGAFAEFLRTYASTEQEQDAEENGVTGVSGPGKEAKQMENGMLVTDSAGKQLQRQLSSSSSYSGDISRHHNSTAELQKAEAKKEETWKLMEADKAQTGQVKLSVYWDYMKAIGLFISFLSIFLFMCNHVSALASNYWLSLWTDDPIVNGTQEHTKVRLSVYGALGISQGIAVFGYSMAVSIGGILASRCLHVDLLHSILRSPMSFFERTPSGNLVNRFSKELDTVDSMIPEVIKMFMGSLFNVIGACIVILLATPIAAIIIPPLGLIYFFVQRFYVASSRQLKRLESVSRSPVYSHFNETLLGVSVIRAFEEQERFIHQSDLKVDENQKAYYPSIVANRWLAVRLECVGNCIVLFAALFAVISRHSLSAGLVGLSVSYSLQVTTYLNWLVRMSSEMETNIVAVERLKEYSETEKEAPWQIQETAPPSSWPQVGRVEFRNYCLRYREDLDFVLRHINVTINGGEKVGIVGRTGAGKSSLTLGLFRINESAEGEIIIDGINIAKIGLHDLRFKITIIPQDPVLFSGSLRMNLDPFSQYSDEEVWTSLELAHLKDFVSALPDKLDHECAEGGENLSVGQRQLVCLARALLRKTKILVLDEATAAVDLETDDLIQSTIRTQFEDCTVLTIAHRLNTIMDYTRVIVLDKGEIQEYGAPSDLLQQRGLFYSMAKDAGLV
Text: as §1, §2

T1 sequence (P08183 whole entry): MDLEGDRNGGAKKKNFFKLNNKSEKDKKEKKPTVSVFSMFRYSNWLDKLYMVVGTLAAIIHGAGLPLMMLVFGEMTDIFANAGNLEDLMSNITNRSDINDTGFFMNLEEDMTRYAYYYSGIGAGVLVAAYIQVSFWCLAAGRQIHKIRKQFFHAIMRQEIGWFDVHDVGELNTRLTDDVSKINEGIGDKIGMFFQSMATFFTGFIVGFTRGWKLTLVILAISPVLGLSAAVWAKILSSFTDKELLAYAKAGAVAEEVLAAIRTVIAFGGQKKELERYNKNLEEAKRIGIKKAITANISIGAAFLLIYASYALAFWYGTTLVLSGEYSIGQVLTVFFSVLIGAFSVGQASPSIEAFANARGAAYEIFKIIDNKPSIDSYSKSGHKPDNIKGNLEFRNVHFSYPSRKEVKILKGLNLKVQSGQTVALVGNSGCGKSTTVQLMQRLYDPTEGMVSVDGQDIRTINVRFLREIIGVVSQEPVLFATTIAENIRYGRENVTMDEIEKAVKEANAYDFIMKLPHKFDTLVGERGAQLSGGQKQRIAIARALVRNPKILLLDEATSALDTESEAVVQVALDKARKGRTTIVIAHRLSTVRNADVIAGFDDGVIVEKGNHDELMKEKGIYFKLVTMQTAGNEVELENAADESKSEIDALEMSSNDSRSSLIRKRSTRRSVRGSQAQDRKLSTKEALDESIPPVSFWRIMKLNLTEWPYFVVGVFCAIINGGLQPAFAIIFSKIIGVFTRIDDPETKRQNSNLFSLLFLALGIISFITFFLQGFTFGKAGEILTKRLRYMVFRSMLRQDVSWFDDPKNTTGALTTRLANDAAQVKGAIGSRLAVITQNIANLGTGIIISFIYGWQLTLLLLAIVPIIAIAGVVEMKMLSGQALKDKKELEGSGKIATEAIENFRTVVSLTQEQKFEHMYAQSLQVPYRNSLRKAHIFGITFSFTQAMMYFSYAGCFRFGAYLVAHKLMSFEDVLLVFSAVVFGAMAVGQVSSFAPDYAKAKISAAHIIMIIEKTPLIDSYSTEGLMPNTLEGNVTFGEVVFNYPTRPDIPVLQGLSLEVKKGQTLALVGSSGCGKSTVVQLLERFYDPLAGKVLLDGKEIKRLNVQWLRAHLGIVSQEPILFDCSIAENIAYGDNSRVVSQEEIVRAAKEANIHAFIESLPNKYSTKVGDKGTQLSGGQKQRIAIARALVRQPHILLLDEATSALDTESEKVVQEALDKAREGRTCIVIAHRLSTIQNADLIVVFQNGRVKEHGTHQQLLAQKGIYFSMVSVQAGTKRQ

Structure (SMILES) | sensitization of ABCB1-expressing A2780/ADR cells against 33 [1] | EC50 [1] | IC50 (ABCB1 [2]) | effect of glucose supplementation on cell toxicity (A-549 cells) | IC50 (ABCB1 [3]) | ABCB1 inhibition (ABCB1 [3]) | GI50 (MCF-7 cancer cells) | factor of sensitization of A-549 cells against 33 [4] | Increase Susceptibility toward 33 (Factor) [4] | ABCC1 inhibition (ABCC1)
COC(=O)/C(C#N)=C/c1cn(CC(=O)Nc2ccc(OC)cc2)c2ccccc12 [Compound 24, Methyl-2-cyano-3-(1-(2-((4-methoxyphenyl)amino)-2-oxoethyl)-1H-indol-3-yl) Acrylate] | completely sensitized | 793 ± 39 nM | 1490 ± 50 nM | supplementation of glucose prevents cell toxicity | 983 ± 135 nM | X (Compounds were considered as inhibitors if they reached 20% (+SEM) inhibition compared to the reference inhibitors 33–35; X = fulfilled) | 15100 ± 400 nM | 2.5 | 2.5 | X (Compounds were considered as inhibitors if they reached 20% (+SEM) inhibition compared to the reference inhibitors 33–35; X = fulfilled)
COC(=O)/C(C#N)=C/c1cn(CC(=O)Nc2ccc(C)cn2)c2ccccc12 [Compound 30, Methyl-2-cyano-3-(1-(2-((5-methylpyridin-2-yl)amino)-2-oxoethyl)-1H-indol-3-yl) Acrylate] | completely sensitized | 1220 ± 10 nM | 2770 ± 20 nM | supplementation of glucose prevents cell toxicity | 1510 ± 80 nM | X (Compounds were considered as inhibitors if they reached 20% (+SEM) inhibition compared to the reference inhibitors 33–35; X = fulfilled) | 9120 ± 220 nM | 2.6 | 2.6 | X (Compounds were considered as inhibitors if they reached 20% (+SEM) inhibition compared to the reference inhibitors 33–35; X = fulfilled)
